Data from patent US20240409558A1, “IRREVERSIBLE INHIBITORS OF KRAS” (BIOMEA FUSION, INC., priority 2021, published 2024).

system: human KRAS G12C mutated cell line MIA PaCa-2; assay: Inhibition of proliferation of MIA PaCa-2 cells (CellTiter-Glo, 7 day); type: cell-based; conditions: 168 h, Table 3, 7 day, mean, read-out: MIA PaCa-2 IC50 (μM) 7 day Mean
Procedure, shortened: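 MIA PaCa-2 cells (RPMI-1640, 10% FBS) seeded at about 1000 cells/well; eight compound concentrations in duplicate added 2 h later, with media and compound refreshed on day 3. ATP-luminescence viability read on day 7 by CellTiter-Glo; % inhibition relative to 0.2% DMSO control.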

Structure (SMILES)	IC50 [µM]
C=CC(=O)N1C2CCC1CN(c1nc(OC[C@@]34CCCN3C[C@H](F)C4)nc3cc(-c4cccc5cccc(Cl)c45)c(F)cc13)C2 [Compound 321, 1-[3-[7-(8-chloro-1-naphthyl)-6-fluoro-2-[[(2R,8S)-2-fluoro-1,2,3,5,6,7-hexahydropyrrolizin-8-yl]methoxy]quinazolin-4-y1]-3,8-diazabicyclo[3.2.1]octan-8-yl]prop-2-en-1-one]	> 1
C=CC(=O)N1C[C@H]2C[C@@H]1CN2c1nc(OC[C@@]23CCCN2C[C@H](F)C3)nc2cc(-c3cc(O)cc(Cl)c3C3CC3)cnc12 [Compound 312, 1-[(1R,4R)-5-[7-(3-chloro-2-cyclopropyl-5-hydroxy-phenyl)-2-[[(2R,8S)-2-fluoro-1,2,3,5,6,7-hexahydropyrrolizin-8-yl]methoxy]pyrido[3,2-d]pyrimidin-4-y1]-2,5-diazabicyclo[2.2.1]heptan-2-yl]prop-2-en-1-one]	> 1
C=CC(=O)N1C[C@H]2C[C@@H]1CN2c1nc(OC[C@@]23CCCN2C[C@H](F)C3)nc2cc(-c3cccc4cccc(Cl)c34)c(F)cc12 [Compound 322, 1-[(1R,4R)-5-[7-(8-chloro-1-naphthyl)-6-fluoro-2-[[(2R,8S)-2-fluoro-1,2,3,5,6,7-hexahydropyrrolizin-8-yl]methoxy]quinazolin-4-y1]-2,5-diazabicyclo[2.2.1]heptan-2-yl]prop-2-en-1-one]	> 1
C=CC(=O)N1CCN(c2nc(OC[C@@]34CCCN3C[C@H](F)C4)nc3cc(-c4cc(O)cc(Cl)c4C4CC4)cnc23)C2(CC2)C1 [Compound 319, 1-[4-[7-(3-chloro-2-cyclopropyl-5-hydroxy-phenyl)-2-[[(2R,8S)-2-fluoro-1,2,3,5,6,7-hexahydropyrrolizin-8-yl]methoxy]pyrido[3,2-d]pyrimidin-4-yl]-4,7-diazaspiro[2.5]octan-7-yl]prop-2-en-1-one]	> 1
C=CC(=O)N1C2CCC1CN(c1nc(OCC34CCCN3CCC4)nc3c(F)c(-c4cccc(Cl)c4C4CC4)ncc13)C2 [Compound 301, 1-[3-[7-(3-chloro-2-cyclopropyl-phenyl)-8-fluoro-2-(1,2,3,5,6,7-hexahydropyrrolizin-8-ylmethoxy)pyrido[4,3-d]pyrimidin-4-yl]-3,8-diazabicyclo[3.2.1]octan-8-yl]prop-2-en-1-one]	0.16
C=CC(=O)N1C2CCC1CN(c1nc(OC[C@@]34CCCN3C[C@H](F)C4)nc3c(F)c(-c4cc(O)cc(Cl)c4C4CC4)ncc13)C2 [Compound 302, 1-[3-[7-(3-chloro-2-cyclopropyl-5-hydroxy-phenyl)-8-fluoro-2-[[(2R,8S)-2-fluoro-1,2,3,5,6,7-hexahydropyrrolizin-8-yl]methoxy]pyrido[4,3-d]pyrimidin-4-yl]-3,8-diazabicyclo[3.2.1]octan-8-yl]prop-2-en-1-one]	0.000287
C=CC(=O)N1CCN(c2nc(OC[C@@]34CCCN3C[C@H](F)C4)nc3cc(-c4c(O)cccc4C4CC4)cnc23)[C@H](C)C1 [Compound 320, 1-[(3R)-4-[7-(2-cyclopropyl-6-hydroxy-phenyl)-2-[[(2R,8S)-2-fluoro-1,2,3,5,6,7-hexahydropyrrolizin-8-yl]methoxy]pyrido[3,2-d]pyrimidin-4-yl]-3-methyl-piperazin-1-yl]prop-2-en-1-one]	> 1
C=CC(=O)N1C2CCC1CN(c1nc(OC[C@@]34CCCN3C[C@H](F)C4)nc3cc(-c4cccc5cccc(Cl)c45)ccc13)C2 [Compound 324, 1-[3-[7-(8-chloro-1-naphthyl)-2-[[(2R,8S)-2-fluoro-1,2,3,5,6,7-hexahydropyrrolizin-8-yl]methoxy]quinazolin-4-y1]-3,8-diazabicyclo[3.2.1]octan-8-yl]prop-2-en-1-one]	> 1
C=CC(=O)N1C2CCC1CN(c1nc(OC[C@@]34CCCN3C[C@H](F)C4)nc3c(F)c(-c4cc(O)cc5cccc(Cl)c45)ncc13)C2 [Compound 305, 1-[3-[7-(8-chloro-3-hydroxy-1-naphthyl)-8-fluoro-2-[[(2R,8S)-2-fluoro-1,2,3,5,6,7-hexahydropyrrolizin-8-yl]methoxy]pyrido[4,3-d]pyrimidin-4-y1]-3,8-diazabicyclo[3.2.1]octan-8-yl]prop-2-en-1-one]	0.0023

same assay, conditions: 168 h, Table 4, 7 day, mean, read-out: MIA PaCa-2 IC50 (μM) 7 day Mean

Structure (SMILES)	IC50 [µM]
Oc1cc2cccc(-c3ncc4c(N5CC6CCC(C5)N6)nc(OC[C@@]56CCCN5C[C@H](F)C6)nc4c3F)c2c(F)c1F [Compound 401, 5-[4-(3,8-diazabicyclo[3.2.1]octan-3-yl)-8-fluoro-2-[[(2R,8S)-2-fluoro-1,2,3,5,6,7-hexahydropyrrolizin-8-yl]methoxy]pyrido[4,3-d]pyrimidin-7-y1]-3,4-difluoro-naphthalen-2-ol]	> 1
Oc1cc(Cl)c(C2CC2)c(-c2ncc3c(N4CCC5(CC4)CN5)nc(OC[C@@]45CCCN4C[C@H](F)C5)nc3c2F)c1 [Compound 438, 3-chloro-4-cyclopropyl-5-[4-(1,6-diazaspiro[2.5]octan-6-yl)-8-fluoro-2-[[(2R,8S)-2-fluoro-1,2,3,5,6,7-hexahydropyrrolizin-8-yl]methoxy]pyrido[4,3-d]pyrimidin-7-yl]phenol]	0.229

The remaining lines, values ahead:

IC50 [µM]	Structure (SMILES)
> 1	Oc1cc(-c2ncc3c(C4CCNCC4)nc(OC[C@@]45CCCN4C[C@H](F)C5)nc3c2F)c2c(F)c(F)ccc2c1 [Compound 435, 5,6-difluoro-4-[8-fluoro-2-[[(2R,8S)-2-fluoro-1,2,3,5,6,7-hexahydropyrrolizin-8-yl]methoxy]-4-(4-piperidyl)pyrido[4,3-d]pyrimidin-7-yl]naphthalen-2-ol]
> 1	Oc1cc(Cl)c(C2CC2)c(-c2ccc3c(N4CCNC5(CC5)C4)nc(OC[C@@]45CCCN4C[C@H](F)C5)nc3c2F)c1 [Compound 409, 3-chloro-4-cyclopropyl-5-[4-(4,7-diazaspiro[2.5]octan-7-yl)-8-fluoro-2-[[(2R,8S)-2-fluoro-1,2,3,5,6,7-hexahydropyrrolizin-8-yl]methoxy]quinazolin-7-yl]phenol]
> 1	C=C1CCN(c2nc(OC[C@@]34CCCN3C[C@H](F)C4)nc3c(F)c(-c4cc(O)cc(Cl)c4C4CC4)ncc23)CC1 [Compound 436, 3-chloro-4-cyclopropyl-5-[8-fluoro-2-[[(2R,8S)-2-fluoro-1,2,3,5,6,7-hexahydropyrrolizin-8-yl]methoxy]-4-(4-methylene-1-piperidyl)pyrido[4,3-d]pyrimidin-7-yl]phenol]
7.83	Oc1cc(-c2ncc3c(C45CCNCC4C5)nc(OC[C@@]45CCCN4C[C@H](F)C5)nc3c2F)c2ccccc2c1 (stereo partly drawn) [Compound 403, 4-[4-(3-azabicyclo[4.1.0]heptan-6-yl)-8-fluoro-2-[[(2R,8S)-2-fluoro-1,2,3,5,6,7-hexahydropyrrolizin-8-yl]methoxy]pyrido[4,3-d]pyrimidin-7-yl]naphthalen-2-ol]
> 1	Oc1cc(Cl)c(C2CC2)c(-c2ncc3c(N4CCC5(CC4)CO5)nc(OC[C@@]45CCCN4C[C@H](F)C5)nc3c2F)c1 [Compound 437, 3-chloro-4-cyclopropyl-5-[8-fluoro-2-[[(2R,8S)-2-fluoro-1,2,3,5,6,7-hexahydropyrrolizin-8-yl]methoxy]-4-(1-oxa-6-azaspiro[2.5]octan-6-yl)pyrido[4,3-d]pyrimidin-7-yl]phenol]
> 1	C[C@H]1CC(c2nc(OC[C@@]34CCCN3C[C@H](F)C4)nc3c(F)c(-c4cc(O)cc5ccc(F)c(F)c45)ncc23)CCN1 (stereo partly drawn) [Compound 439, 5,6-difluoro-4-[8-fluoro-2-[[(2R,8S)-2-fluoro-1,2,3,5,6,7-hexahydropyrrolizin-8-yl]methoxy]-4-[(2S)-2-methyl-4-piperidyl]pyrido[4,3-d]pyrimidin-7-yl]naphthalen-2-ol]
